Laboratory results published in publication PMC3967213, “Cyclic Marinopyrrole Derivatives as Disruptors of Mcl-1 and Bcl-xL Binding to Bim” (Marine Drugs, 2014).
“Also recorded” adds a separate entry of the source. Where two headings read alike, the source gives them in different places.

Legend:
[1] = target: GST-Mcl-1 / biotinylated Bim BH3 peptide (Homo sapiens, UniProt Q07820); test: ELISA, disruption of Mcl-1 binding to Bim; conditions: for fold potency relative to 1 against Mcl-1/Bim: compared with 1
Sequence of GST-Mcl-1 / biotinylated Bim BH3 peptide (Q07820 whole entry): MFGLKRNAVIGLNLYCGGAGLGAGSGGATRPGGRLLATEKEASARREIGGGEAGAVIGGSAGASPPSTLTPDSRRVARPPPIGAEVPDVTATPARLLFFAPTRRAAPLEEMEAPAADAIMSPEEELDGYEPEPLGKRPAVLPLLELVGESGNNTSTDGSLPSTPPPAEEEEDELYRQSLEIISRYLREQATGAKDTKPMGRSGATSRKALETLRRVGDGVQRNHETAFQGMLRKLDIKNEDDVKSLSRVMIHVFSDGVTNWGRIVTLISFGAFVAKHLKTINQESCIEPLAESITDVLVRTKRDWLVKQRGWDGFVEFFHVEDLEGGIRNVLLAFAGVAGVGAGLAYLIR
Procedure: (§1) ELISAs were performed using a similar procedure as previously described. Briefly, 40 nM of biotinylated Bim BH3 peptide (Biomatik, Wilmington, DE, USA) in SuperBlock blocking buffer (Thermo Scientific Pierce, Rockford, IL, USA) was incubated in high-binding capacity streptavidin-coated plates (Thermo Scientific Pierce, Rockford, IL, USA) for 2 h. Compounds were diluted in 120 µL of PBS containing 10 nM of GST-Mcl-1 or GST-Bcl-xL in 1.5-mL tubes for 15 min. Wells were washed with wash buffer (PBS containing 0.05% Tween-20) and then 100 µL of the compound/GST-protein mixture was transferred to the wells. The plates were incubated for 2 h, and then, the wells were washed with wash buffer. HRP-conjugated anti-GST antibody (Bethyl Laboratories, Montgomery, TX, USA) was diluted 1:2000 in SuperBlock, and 100 µL were transferred to each well. The plate was incubated for 1 h, and then, the wells were washed with wash buffer followed by PBS. One hundred microliters of SureBlue TMB Microwell Peroxidase Substrate (VWR International, Radnor, PA, USA) was added to each well, and the plates were developed for 5–10 min. One hundred microliters of 1 N HCl was added to each well to stop the reaction, and the absorbance was read at 450 nm using a µQuant plate reader (Bio-Tek Instruments, Winooski, VT, USA).

[2] = system: Mcl-1, Bim and caspase 3 in MDA-MB-468 cells; test: Western blotting after treatment of intact human breast cancer cells; type: cell-based; conditions: 10 μM for 16 h
[3] = target: GST-Bcl-xL / biotinylated Bim BH3 peptide (Homo sapiens, UniProt Q07817); test: ELISA, disruption of Bcl-xL binding to Bim; conditions: for IC50: 10 nM GST-Bcl-xL, 40 nM biotinylated Bim BH3 peptide, read-out: IC50 against Bcl-xL/Bim binding; for fold potency relative to 1 against Bcl-xL/Bim: compared with 1
Sequence of GST-Bcl-xL / biotinylated Bim BH3 peptide (Q07817 whole entry): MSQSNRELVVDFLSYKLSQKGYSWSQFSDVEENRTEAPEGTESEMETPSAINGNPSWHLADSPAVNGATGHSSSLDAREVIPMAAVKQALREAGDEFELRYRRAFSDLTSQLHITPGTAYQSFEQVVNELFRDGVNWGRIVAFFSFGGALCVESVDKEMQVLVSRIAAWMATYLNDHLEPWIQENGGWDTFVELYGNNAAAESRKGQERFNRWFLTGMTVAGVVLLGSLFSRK
Procedure: as §1

Structure (SMILES)	activity against Mcl-1/Bim (in words) ([1]; ELISA)	cleavage of caspase 3 [2]	levels of Mcl-1 and Bim [2]	further results
COC(=O)c1ccc(C(=O)c2[nH]c(Cl)c(Cl)c2-n2c(C(=O)c3ccc(C(=O)OC)cc3O)cc(Cl)c2Cl)c(O)c1 [Compound 4a, dimethyl-4,4′-(4,4′,5,5′-tetrachloro-1′H-[1,3′-bipyrrole]-2,2′-dicarbonyl)bis(3-hydroxybenzoate)]	showed activity	cleavage of caspase 3	significant decrease	
O=C(O)c1ccc(C(=O)c2[nH]c(Cl)c(Cl)c2-n2c(C(=O)c3ccc(C(=O)O)cc3O)cc(Cl)c2Cl)c(O)c1 [Compound 7a, 4,4′-(4,4′,5,5′-Tetrachloro-1′H-[1,3′-bipyrrole]-2,2′-dicarbonyl)bis(3-hydroxybenzoic acid)]	lower activity than 1; also recorded: less active	little caspase 3 cleavage	did not decrease	activity against Bcl-xL/Bim (in words) [3]: little activity; also recorded: less active; melting point: 190.5 to 192 °C
CCOP(=O)(OCC)c1ccc(C(=O)c2cc(Cl)c3n2-c2c([nH]c(Cl)c2Cl)C(=O)c2ccc(P(=O)(OCC)OCC)cc2O3)c(O)c1 [Compound 5, 3-Hydroxy-4-(2,3,7-trichloro-13-oxo-10-(diethylphosphonyl)-1,13-dihydrobenzo[g]dipyrrolo[2,1-b:3′,2′-d][1,3]oxazocine-5-carbonyl)diethyl phosphonate]				IC50 ([1]; ELISA, 10 nM GST-Mcl-1, 40 nM biotinylated Bim BH3 peptide, read-out: IC50 to disrupt the binding of Mcl-1 to Bim): > 100 µM; IC50 [3]: > 100 µM
O=C(c1ccccc1O)c1[nH]c(Cl)c(Cl)c1-n1c(C(=O)c2ccccc2O)cc(Cl)c1Cl (racemic) [Compound 1, (±)-marinopyrrole A, reference compound]		cleave caspase 3	able to decrease	IC50 [1]: 8.9 µM
O=C(c1ccc(P(=O)(O)O)cc1O)c1[nH]c(Cl)c(Cl)c1-n1c(C(=O)c2ccc(P(=O)(O)O)cc2O)cc(Cl)c1Cl [Compound 8a, ((4,4′,5,5′-Tetrachloro-1′H-[1,3′-bipyrrole]-2,2′-dicarbonyl)bis(3-hydroxy-4,1-phenylene))diphosphonic acid]	slightly less potent than 1; also recorded: less active	little effect	little effect	activity against Bcl-xL/Bim (in words) [3]: less active
COC(=O)c1ccc(C(=O)c2cc(Cl)c3n2-c2c([nH]c(Cl)c2Cl)C(=O)c2ccc(C(=O)OC)cc2O3)c(O)c1 [Compound 4, Methyl-2,3,7-trichloro-5-(2-hydroxy-4-(methoxycarbonyl)benzoyl)-13-oxo-1,13-dihydrobenzo[g]-dipyrrolo[2,1-b:3′,2′-d][1,3]oxazocine-10-carboxylate]				fold potency relative to 1 against Mcl-1/Bim ([1]; ELISA): two-fold more potent; fold potency relative to 1 against Bcl-xL/Bim [3]: seven-fold more potent
O=C1c2ccc(OS(=O)(=O)C(F)(F)F)cc2Oc2c(Cl)cc(C(=O)c3ccc(OS(=O)(=O)C(F)(F)F)cc3O)n2-c2c1[nH]c(Cl)c2Cl [Compound 3, 3-Hydroxy-4-(2,3,7-trichloro-13-oxo-10-(((trifluoromethyl)sulfonyl)oxy)-1,13 dihydrobenzo[g]di-pyrrolo[2,1-b:3′,2′-d][1,3]oxazocine-5-carbonyl)phenyl trifluoromethanesulfonate]				fold potency relative to 1 against Mcl-1/Bim ([1]; ELISA): six; fold potency relative to 1 against Bcl-xL/Bim [3]: seven-fold higher potency
CCOP(=O)(OCC)c1ccc(C(=O)c2[nH]c(Cl)c(Cl)c2-n2c(C(=O)c3ccc(P(=O)(OCC)OCC)cc3O)cc(Cl)c2Cl)c(O)c1 [Compound 5a, tetraethyl((4,4′,5,5′-tetrachloro-1′H-[1,3′-bipyrrole]-2,2′-dicarbonyl)bis(3-hydroxy-4,1-phenylene))bis(phosphonate)]	showed activity	little effect	little effect	IC50 [3]: > 100 µM
